How the values were obtained:
[1] = molecular target: T1, Norepinephrine transporter (Rattus norvegicus, UniProt Q9WTR4); assay: Inhibition of 0.5 nM [3H]nisoxetine binding toNorepinephrine transporter
[2] = molecular target: T2, Sodium-dependent serotonin transporter (Rattus norvegicus, UniProt P31652)
[3] = molecular target: T1, Norepinephrine transporter; assay: Inhibition of 0.5 nM [3H]nisoxetine binding to Norepinephrine transporter
[4] = molecular target: T2, Sodium-dependent serotonin transporter; assay: Inhibition of 0.2 nM [3H]paroxetine binding to Serotonin transporter
[5] = molecular target: Sodium-dependent dopamine transporter (Rattus norvegicus, UniProt P23977); assay: Displacement of 0.5 nM [3H]WIN-35248 from Dopamine transporter
Sequence of Sodium-dependent dopamine transporter (P23977 whole entry): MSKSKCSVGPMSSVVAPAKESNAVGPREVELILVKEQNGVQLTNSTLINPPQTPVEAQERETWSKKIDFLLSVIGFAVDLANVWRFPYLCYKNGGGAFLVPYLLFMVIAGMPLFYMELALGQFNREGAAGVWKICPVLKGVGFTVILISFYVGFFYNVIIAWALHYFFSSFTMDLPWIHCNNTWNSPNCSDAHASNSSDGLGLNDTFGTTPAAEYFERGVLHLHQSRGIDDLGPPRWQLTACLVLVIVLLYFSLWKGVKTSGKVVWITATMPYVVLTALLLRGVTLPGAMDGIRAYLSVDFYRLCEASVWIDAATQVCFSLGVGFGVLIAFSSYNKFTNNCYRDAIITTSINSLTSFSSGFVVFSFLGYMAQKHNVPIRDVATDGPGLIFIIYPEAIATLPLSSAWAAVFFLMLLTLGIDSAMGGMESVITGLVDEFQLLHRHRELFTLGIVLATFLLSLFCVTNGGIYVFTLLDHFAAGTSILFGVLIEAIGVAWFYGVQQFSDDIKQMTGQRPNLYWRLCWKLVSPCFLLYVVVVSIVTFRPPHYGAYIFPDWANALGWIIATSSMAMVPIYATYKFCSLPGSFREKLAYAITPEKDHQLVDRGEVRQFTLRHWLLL

T1 sequence (Q9WTR4 whole entry): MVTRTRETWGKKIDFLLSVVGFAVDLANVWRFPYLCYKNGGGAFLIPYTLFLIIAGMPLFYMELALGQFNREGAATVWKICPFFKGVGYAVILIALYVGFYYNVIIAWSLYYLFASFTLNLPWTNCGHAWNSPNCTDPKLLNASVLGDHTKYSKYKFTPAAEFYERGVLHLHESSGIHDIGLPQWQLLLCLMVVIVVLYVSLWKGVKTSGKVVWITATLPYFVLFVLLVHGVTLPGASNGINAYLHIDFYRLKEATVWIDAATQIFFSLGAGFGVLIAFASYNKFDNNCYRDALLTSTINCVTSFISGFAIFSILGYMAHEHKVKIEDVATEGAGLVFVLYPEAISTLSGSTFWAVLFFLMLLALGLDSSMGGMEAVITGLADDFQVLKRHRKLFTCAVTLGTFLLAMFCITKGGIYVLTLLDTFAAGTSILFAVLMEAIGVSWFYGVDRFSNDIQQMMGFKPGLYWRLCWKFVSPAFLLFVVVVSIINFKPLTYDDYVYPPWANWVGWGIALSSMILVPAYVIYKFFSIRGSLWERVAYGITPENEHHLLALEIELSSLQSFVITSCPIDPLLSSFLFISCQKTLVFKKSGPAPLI
T2 sequence (P31652 whole entry): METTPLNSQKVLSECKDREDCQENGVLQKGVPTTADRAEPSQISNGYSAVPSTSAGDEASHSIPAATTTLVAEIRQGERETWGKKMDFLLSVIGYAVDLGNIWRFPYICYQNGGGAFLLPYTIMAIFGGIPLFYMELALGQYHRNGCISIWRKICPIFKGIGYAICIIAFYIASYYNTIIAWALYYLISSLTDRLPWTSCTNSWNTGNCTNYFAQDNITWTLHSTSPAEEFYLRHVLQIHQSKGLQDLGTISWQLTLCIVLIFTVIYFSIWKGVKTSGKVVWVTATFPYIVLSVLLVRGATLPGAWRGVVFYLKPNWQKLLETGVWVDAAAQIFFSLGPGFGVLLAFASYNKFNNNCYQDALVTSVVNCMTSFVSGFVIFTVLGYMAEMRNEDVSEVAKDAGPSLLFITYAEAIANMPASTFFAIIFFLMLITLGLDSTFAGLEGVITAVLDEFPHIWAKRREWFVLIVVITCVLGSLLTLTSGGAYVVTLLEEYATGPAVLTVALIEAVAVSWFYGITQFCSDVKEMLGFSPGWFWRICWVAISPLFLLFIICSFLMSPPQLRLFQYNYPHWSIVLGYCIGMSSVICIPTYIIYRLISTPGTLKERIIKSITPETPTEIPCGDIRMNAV

Row | SMILES | IC50 [1] [nM] | Ki [2] [nM] | Ki [3] [nM] | IC50 [4] [nM] | IC50 [5] [nM]
1 | COC(=O)C1C2CCC(CC1c1ccc(C)cc1)N2 (stereo in doubt; 4c) | 9 | 46 | 5.2 | 500 | 33.6
2 | COC(=O)C1C(c2ccc(C)cc2)CC2CCC1N2C (stereo in doubt; 5c) | 270 | – | 160 | – | –
3 | COC(=O)C1C(c2ccc(C)cc2)CC2CCC1N2C (stereo in doubt; 6c) | – | – | 36 | – | –
4 | COC(=O)C1C2CCC(CC1c1ccc(F)cc1)N2 (stereo in doubt; 4a) | 9.8 | 8.4 | 5.9 | 92.4 | 32.6
5 | COC(=O)C1C2CCC(CC1c1ccc(F)cc1)N2 (stereo in doubt; 7a) | 18.8 | 6.24 | 11.3 | – | 4.4
6 | COC(=O)C1C2CCC(CC1c1ccc(C)cc1)N2 (stereo in doubt; 7c) | 7.2 | 12 | 4.4 | 135 | 0.84
7 | COC(=O)[C@H]1[C@@H](c2ccc(F)cc2)C[C@H]2CC[C@H]1N2C (stereo in doubt; 5a) | – | 460 | 741 | – | –
8 | COC(=O)C1C(c2ccc(Cl)cc2)CC2CCC1N2C (stereo in doubt; 6b) | – | 4 | – | – | –
9 | COC(=O)C1C(c2ccc(Cl)cc2)CC2CCC1N2C (stereo in doubt; 5b) | – | 91 | – | – | –
10 | COC(=O)C1C2CCC(CC1c1ccc(Cl)cc1)N2 (stereo in doubt; 7b) | 5.45 | 0.38 | 3.28 | – | –
11 | COC(=O)[C@H]1[C@@H](c2ccc(F)cc2)C[C@H]2CC[C@H]1N2C (stereo in doubt; 6a) | – | 69 | 503 | – | –
12 | COC(=O)C1C2CCC(CC1c1ccc(Cl)cc1)N2 (stereo in doubt; 4b) | 5.14 | 4.8 | 3.1 | 53 | 3.1

From ChEMBL document CHEMBL1133485, “3alpha-(4-Substituted phenyl)nortropane-2beta-carboxylic acid methyl esters show selective binding at the norepinephrine transporter” (Bioorg Med Chem Lett, 2000)
